In US8017350B2, “Glimepiride- and insulin-induced glycosylphosphatidylinositol-specific phospholipase C regulation” (Sanofi-Aventis Deutschland GmbH, priority 2004, dated 2011):

How the values were obtained:
isolated rat adipocytes = assay: glucose transport assay (2-deoxy-D-[3H]glucose); type: cell-based
Method: (§1) Glucose transport was determined as described in “Müller, G. et al., (1994) J. Cell Biol. 126: 1267-1276” by incubation of 10,000-20,000 washed adipocytes with 2-deoxy-D[2,6-^3H]glucose at 50 μM final conc. (0.33 μCi/ml) in 50-μl portions for 20 min at 37° C. in the absence or presence of 20 μM cytochalasin B.
(§2) Table 3: Isolated rat adipocytes were incubated in the presence of methyl-β-cyclodextrin (m-β-CD, 10 mM, 50 min), CBDP (300 μM, electroporation, followed by washing and subsequent incubation for 30 min), PIG41 (10 μM, 15 min), sodium orthovanadate (1 mM, 15 min), trypsin (10 μg/ml, 15 min followed by treatment with 0.5 M NaCl and subsequent washing) and N-ethylmaleimide (1 mM, 5 min followed by addition of DTT). After addition of GPI-2350 (50 μM final conc.) to one half of the adipocyte suspension and further incubation (60 min, 37° C.), portions of the cells were assayed for 5′-Nuc activity in the isolated IcDIGs. The increase in 5′-Nuc during the basal incubation was set at 100 arb. units. Other portions of the cells (after 15 min incubation) were assayed for glucose transport which was set at 100 arb. units for the basal incubation. Means+SD of at least 3 independent cell incubations with activity measurements in triplicate each are given.
(§3) FIG. 8: Effect of GPI-2350 on the glimepiride/insulin-induced metabolic activity. Isolated rat adipocytes were treated (5 min, 37° C.) without or with GPI-2350 (Panel A, 50 μM; Panel B, increasing conc.; Panel C, 5 μM, 50 μM) and then incubated (15 min, 37° C.) in the absence or presence of insulin (Ins, 10 nM) or glimepiride (Gli, 20 μM or increasing conc.) as indicated. The adipocytes were then assayed for glucose transport and isoproterenol-induced lipolysis. The activity is given relative to the absence of GPI-2350 in the control reaction (Panels A, basal) or in the insulin- and glimepiride-stimulated state (Panels B and C, set at 100). Means+SD of at least 5 independent cell incubations with activity measurements in triplicate each are given.

[1] = test system: 5′-Nuc in isolated rat adipocytes; assay: 5′-Nuc translocation to lcDIGs induced by insulin-mimetic stimuli; type: cell-based
Method: as §2

5'-Nuc, rat adipocytes = assay: 5'-Nuc translocation to lcDIGs induced by insulin-mimetic stimuli; type: cell-based; conditions: for Increase in 5′-Nuc at lcDIGs: basal set at 100
Source text: Finally, the involvement was investigated of the GPI-PLC in signaling pathways of insulin-mimetic stimuli other than glimepiride, which are either dependent on or independent of the redistribution of GPI-proteins within DIGs. […] This is in agreement with their modes of action, the well-known inhibition of insulin receptor and IRS-1 dephosphorylation by the tyrosine phosphatase inhibitor, vanadate and the direct stimulation of pp59^Lyn and IRS-1 tyrosine phosphorylation by the CBDP.
as §2

[2] = test system: glucose transport, rat adipocytes; assay: Glucose transport in rat adipocytes; type: cell-based; conditions: for Glucose Transport: basal set at 100; for glucose transport (in words): insulin-mimetic stimuli
Method: as §1
Subsequently, we studied whether the differential effects of GPI-PLC inhibition on IRS-1 tyrosine phosphorylation in response to insulin and glimepiride is reflected in their metabolic activity in insulin target cells. For this, isolated rat adipocytes were pretreated with GPI-2350 prior to challenge with either stimulus, and then assayed for glucose transport and isoproterenol-induced lipolysis (FIG. 8). […] These differential effects of GPI-PLC inhibition were confirmed by analysis of the effect of GPI-2350 on the inhibition of isoproterenol-induced lipolysis by glimepiride and insulin when measured as release of NBD-FA instead of glycerol from rat adipocytes prelabeled with this fluorescent fatty acid derivative (FIG. 9).
as §2, §3

[3] = test system: patients with type 2 diabetes; conditions: cited from earlier work
rat adipocyte GPI-PLC = assay: adipocyte GPI-PLC assay (plasma membranes or hc/lcDIGs, AChE substrate, TX-114 partitioning); type: biochemical; conditions: at the highest concentration tested, only
Method: (§4) GPI-PLD (rat serum) was assayed according to “Hari et al. (1997) Biochim. Biophys. Acta 1355: 293-302” by incubation with 10 μl of human placental aP solution (100 U/ml in 10 mM Hepes/NaOH, pH 7.0, 150 mM NaCl) in 100 μl of 200 mM Tris/maleate (pH 7.0) and 1% Nonidet P-40 for 10 min at 37° C. and subsequent termination of the reaction by addition of 0.4 ml of ice-cold stop buffer (10 mM Hepes/NaOH, pH 7.0, 150 mM NaCl, 0.1 mM MgCl2 and 0.01 mM zinc acetate). GPI-PLC (T. brucei) was assayed as described in “Mensa-Wilmot et al. (1995) Methods Enzymol. 250: 641-655” by incubation with 5 μl of human placental aP solution (see above) in 50 μl of 50 mM Tris/HCl (pH 8.0), 0.25% Nonidet P-40 and 5 mM EDTA for 30 min at 37° C. and subsequent termination of the reaction by addition of 0.45 ml of stop buffer. PI-PLC (B. cereus) and adipocyte GPI-PLC (5-25 μg plasma membranes or hc/lcDIGs) were assayed by incubation with 10 μl of bovine erythrocyte acetylcholinesterase (AChE) solution (12 U/ml in 10 mM Tris/HCl, pH 7.4, 144 mM NaCl, 0.1% TX-100) in 100 μl of 20 mM Hepes/KOH (pH 7.8), 144 mM NaCl, 0.1% TX-100, 0.2 mM MgCl2 for 1 h at 25° C. and subsequent termination by adding 5 μl of glacial acetic acid and then 0.4 ml of 10 mM Tris/HCl (pH 7.4), 144 mM NaCl. Each reaction mixture was subjected to TX-114 partitioning (see below).
(§5) Pelleted hc/lcDIGs (10-50 μg protein) or (G)PI-PLC reaction mixtures (0.5 ml) were separated into amphiphilic and hydrophilic proteins using partitioning between TX-114-enriched and depleted phases according to “Bordier, C., (1981) J. Biol, Chem. […]” by suspending in 1 ml of ice-cold TX-114 (1%), 25 mM Tris/HCl (pH 7.4), 144 mM NaCl or mixing with 0.5 ml of ice-cold TX-114 (2%), respectively. After incubation for 1 h on ice, the mixture was layered onto a cushion of 0.4 ml of 0.25 M sucrose and 25 mM Tris/HCl (pH 7.4) on ice. Phase separation was induced by warming up to 37° C. and subsequent centrifugation (10,000×g, 1 min). After re-extraction of the lower TX-114-enriched phase, aliquots of the pooled upper TX-114-depleted phase were measured for 5′-Nuc, aP and AChE activity or precipitated (15 polyethylene glycol 4000) for SDS-PAGE analysis.
Table 1: GPI-PLC of hcDIGs from rat adipocytes, GPI-PLC from T. brucei and PI-PLC from B. cereus were incubated with solubilized and partially purified bovine erythrocyte AChE or human placental aP in the absence or presence of increasing concentrations (0.05 μM-1 mM) of the inhibitors indicated under appropriate conditions (see Materials and Methods). Cleavage rate was calculated from the amount of hydrophilic AChE and aP activity recovered with the TX-114-depleted phase upon TX-114 partitioning. […]

PI-PLC (B. cereus) = molecular target: T1, PI-PLC (B. cereus) (Bacillus cereus, UniProt P14262); assay: PI-PLC (B. cereus) assay, AChE substrate, TX-114 partitioning; type: biochemical; conditions: read-out: inhibition % at 1 mM
T1 construct: purchased SigmalAldrich (Deisenhofen, Germany)
Method: as §4, §5
(§6) Table 1: GPI-PLC of hcDIGs from rat adipocytes, GPI-PLC from T. brucei and PI-PLC from B. cereus were incubated with solubilized and partially purified bovine erythrocyte AChE or human placental aP in the absence or presence of increasing concentrations (0.05 μM-1 mM) of the inhibitors indicated under appropriate conditions (see Materials and Methods). Cleavage rate was calculated from the amount of hydrophilic AChE and aP activity recovered with the TX-114-depleted phase upon TX-114 partitioning. Means+SD from at least 3 independent incubations with partitioning/enzyme assays in quadruplicate are given. n.a., not applicable.
(§7) Purified (G)PI-PLC/D from B. cereus, rat serum and T. brucei as well as total plasma membranes (PM) and hc/lcDIGs prepared from isolated rat adipocytes were incubated (10 min, 30° C.) with increasing concentrations of GPI-2350 and then assayed for amphiphilic-to-hydrophilic conversion of AChE and aP by TX-114 partitioning (see Materials and Methods). The lipolytic activity was calculated as % of the control reaction in the absence of GPI-2350 (set at 100%). Means+SD of at least 4 independent incubations with AChE and aP activity measurements in triplicate each are given.

GPI-PLC (T. brucei) = molecular target: T2, GPI-PLC (T. brucei) (Trypanosoma brucei brucei, UniProt P09194); assay: GPI-PLC (T. brucei) assay, human placental aP substrate, TX-114 partitioning; type: biochemical
T2 construct: purchased Oxford Glycosystems (Oxford, UK)
Method: as §4, §5, §6, §7

[4] = +GPI-2350 (50 μM final conc., 15 min)
[5] = +GPI-2350 (50 μM final conc., 60 min)

T2 sequence (P09194 whole entry): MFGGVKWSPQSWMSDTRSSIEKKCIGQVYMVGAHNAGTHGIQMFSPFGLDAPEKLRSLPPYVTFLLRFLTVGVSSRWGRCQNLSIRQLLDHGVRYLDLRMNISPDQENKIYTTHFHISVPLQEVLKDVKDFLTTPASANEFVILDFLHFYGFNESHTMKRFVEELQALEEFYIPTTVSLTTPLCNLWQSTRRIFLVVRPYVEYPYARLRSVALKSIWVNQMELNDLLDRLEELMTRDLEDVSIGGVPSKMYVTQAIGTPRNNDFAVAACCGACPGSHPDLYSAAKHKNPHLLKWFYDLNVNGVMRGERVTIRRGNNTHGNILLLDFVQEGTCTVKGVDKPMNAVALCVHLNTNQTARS
T1 sequence (P14262 32-329 limits assumed): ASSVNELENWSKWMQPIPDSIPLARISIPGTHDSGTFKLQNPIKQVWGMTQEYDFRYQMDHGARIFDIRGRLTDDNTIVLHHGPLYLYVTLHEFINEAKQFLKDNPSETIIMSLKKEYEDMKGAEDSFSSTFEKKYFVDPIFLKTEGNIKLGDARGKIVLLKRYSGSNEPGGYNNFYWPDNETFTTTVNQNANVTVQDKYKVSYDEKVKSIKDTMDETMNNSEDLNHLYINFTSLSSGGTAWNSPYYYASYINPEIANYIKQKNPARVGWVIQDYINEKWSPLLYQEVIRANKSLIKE

## CCN1C(=O)C=CC1=O [N-ethylmaleimide]
Isolated rat adipocytes; [4]
  Glucose Transport (basal set at 100 arb. units): 288 + 40 arb. units
Isolated rat adipocytes; −GPI-2350
  Glucose Transport (basal set at 100 arb. units): 308 + 33 arb. units
[1]; [5]
  Increase in 5′-Nuc at lcDIGs (basal set at 100 arb. units): 319 + 52 arb. units
[1]; −GPI-2350
  Increase in 5′-Nuc at lcDIGs (basal set at 100 arb. units): 292 + 60 arb. units

## [Na+].[Na+].[Na+].[O]=[V]([O-])([O-])[O-] [sodium orthovanadate]
Isolated rat adipocytes; [4]
  Glucose Transport (basal set at 100 arb. units): 673 + 45 arb. units
Isolated rat adipocytes; −GPI-2350
  Glucose Transport (basal set at 100 arb. units): 707 + 51 arb. units
5'-Nuc, rat adipocytes
  5'-Nuc at lcDIGs (in words): without concomitant induction of 5′-Nuc translocation to IcDIGs
5'-Nuc, rat adipocytes; +GPI-2350 (50 μM)
  Increase in 5′-Nuc at lcDIGs: 105 + 34 arb. units
5'-Nuc, rat adipocytes; −GPI-2350
  Increase in 5′-Nuc at lcDIGs: 93 + 38 arb. units
[2]; +GPI-2350 (50 μM)
  Glucose Transport: 673 + 45 arb. units
[2]
  glucose transport (in words): stimulated glucose transport
[2]; −GPI-2350
  Glucose Transport: 707 + 51 arb. units
[1]; [5]
  Increase in 5′-Nuc at lcDIGs (basal set at 100 arb. units): 105 + 34 arb. units
[1]; −GPI-2350
  Increase in 5′-Nuc at lcDIGs (basal set at 100 arb. units): 93 + 38 arb. units

## methyl-β-cyclodextrin [m-β-CD] [listing 1 of 2 here]
5'-Nuc, rat adipocytes
  5'-Nuc at lcDIGs (in words): pronounced increases
5'-Nuc, rat adipocytes; +GPI-2350 (50 μM)
  Increase in 5′-Nuc at lcDIGs: 539 + 104 arb. units
5'-Nuc, rat adipocytes; −GPI-2350
  Increase in 5′-Nuc at lcDIGs: 595 + 128 arb. units
[2]; +GPI-2350 (50 μM)
  Glucose Transport: 249 + 18 arb. units
[2]
  glucose transport (in words): glucose transport activation
[2]; −GPI-2350
  Glucose Transport: 289 + 13 arb. units

## CCC1=C(C)CN(C(=O)NCCc2ccc(S(=O)(=O)NC(=O)N[C@H]3CC[C@H](C)CC3)cc2)C1=O [glimepiride]
[3]; 14-week study
  effects vs. gliclazide: no differences between their effects
[3]; first few weeks of treatment
  rate of blood glucose reduction vs. glipizide: more rapidly than glipizide
[3]; human, in vivo
  effects on cardiovascular variables: fewer and less severe effects on cardiovascular variables than glibenclamide
  pharmacokinetics in elderly, renal or liver disease: mainly unaltered
[3]; secondary sulphonylurea failure, fasting glucose target ≦7.8 mmol/L
  efficacy of glimepiride plus insulin: as effective as insulin plus placebo

## CCCCCCCCCCCCP(=O)(O)O[C@H]1[C@H](O)[C@@H](O)[C@H](O)[C@@H](O)[C@@H]1F [GPI-1793, 2-deoxy-2-fluoro-scyllo-inositol-1-O-dodecyl-phosphonic acid]
Rat adipocyte GPI-PLC
  effect on the adipocyte GPI-PLC: moderate

## methyl-β-cyclodextrin [m-β-CD] [listing 2 of 2 here]
Isolated rat adipocytes; [4]
  Glucose Transport (basal set at 100 arb. units): 249 + 18 arb. units
Isolated rat adipocytes; −GPI-2350
  Glucose Transport (basal set at 100 arb. units): 289 + 13 arb. units
[1]; [5]
  Increase in 5′-Nuc at lcDIGs (basal set at 100 arb. units): 539 + 104 arb. units
[1]; −GPI-2350
  Increase in 5′-Nuc at lcDIGs (basal set at 100 arb. units): 595 + 128 arb. units

## CCCCCCCCCCCCP(=O)(OC)O[C@@H]1[C@H](O)[C@H](O)[C@@H](O)[C@H](O)[C@H]1O (stereo partly shown) [GPI-2349, myo-inositol-1-O-dodecylphosphonic acid methylester]
Rat adipocyte GPI-PLC
  effect on the adipocyte GPI-PLC: very moderate
PI-PLC (B. cereus)
  inhibition at 1000 µM: 24%
GPI-PLC (T. brucei); IC50, Table 1, inhibitor 0.05 μM-1 mM
  IC50: 310 to 390 µM
GPI-PLC (T. brucei); read-out: inhibition % at 1 mM
  inhibition at 1000 µM: 66%
